PMC12586182 (Frontiers in Oncology, 2025)

Tests used:
skMLCK = target: T1, skMLCK (Homo sapiens, UniProt Q9H1R3); assay: Kinase panel profiling at 1 µmol/L (mobility shift assay, Carna); type: biochemical; conditions: 1 µmol/L of BTK inhibitor
T1 construct: purchased Carna Biosciences

MSSK1 = target: T2, MSSK1 (Homo sapiens, UniProt Q9UPE1); assay: as above; type: biochemical; conditions: 1 µmol/L of BTK inhibitor
T2 construct: purchased Carna Biosciences

CDK7/CycH/MAT1 = target: T3, CDK7/CycH/MAT1 (Homo sapiens, UniProt P50613); assay: as above; type: biochemical; conditions: 1 µmol/L of BTK inhibitor
T3 construct: purchased Carna Biosciences

RSK2 = target: T4, RSK2 (Homo sapiens, UniProt P51812); assay: as above; type: biochemical; conditions: 1 µmol/L of BTK inhibitor
T4 construct: purchased Carna Biosciences

ACK = target: T5, ACK (Homo sapiens, UniProt Q07912); assay: as above; type: biochemical; conditions: 1 µmol/L of BTK inhibitor
T5 construct: purchased Carna Biosciences

PKACβ = target: T6, PKACβ (Homo sapiens, UniProt P22694); assay: as above; type: biochemical; conditions: 1 µmol/L of BTK inhibitor
T6 construct: purchased Carna Biosciences

Erk5 = target: T7, Erk5 (Homo sapiens, UniProt Q13164); assay: as above; type: biochemical; conditions: 1 µmol/L of BTK inhibitor
T7 construct: purchased Carna Biosciences

CDC7/ASK = target: T8, CDC7/ASK (Homo sapiens, UniProt O00311); assay: as above; type: biochemical; conditions: 1 µmol/L of BTK inhibitor
T8 construct: purchased Carna Biosciences

JNK2 = target: T9, JNK2 (Homo sapiens, UniProt P45984); assay: as above; type: biochemical; conditions: 1 µmol/L of BTK inhibitor
T9 construct: purchased Carna Biosciences

JNK1 = target: T10, JNK1 (Homo sapiens, UniProt P45983); assay: as above; type: biochemical; conditions: 1 µmol/L of BTK inhibitor
T10 construct: purchased Carna Biosciences

DYRK1B = target: T11, DYRK1B (Homo sapiens, UniProt Q9Y463); assay: as above; type: biochemical; conditions: 1 µmol/L of BTK inhibitor
T11 construct: purchased Carna Biosciences

FGFR1 = FGFR1 (Homo sapiens, UniProt P11362); assay: Kinase enzyme activity assay (mobility shift assay, Carna); conditions: for Percentage inhibition of kinase enzyme activity: FGFR1, 1 µmol/L of BTK inhibitor
PHKG1 = target: T12, PHKG1 (Homo sapiens, UniProt Q16816); assay: Kinase panel profiling at 1 µmol/L (mobility shift assay, Carna); type: biochemical; conditions: 1 µmol/L of BTK inhibitor
T12 construct: purchased Carna Biosciences

LCK = target: T13, LCK (Homo sapiens, UniProt P06239); assay: as above; type: biochemical; conditions: 1 µmol/L of BTK inhibitor
T13 construct: purchased Carna Biosciences

BUB1/BUB3 = target: T14, BUB1/BUB3 (Homo sapiens, UniProt O43683); assay: as above; type: biochemical; conditions: 1 µmol/L of BTK inhibitor
T14 construct: purchased Carna Biosciences

TRKB = target: T15, TRKB (Homo sapiens, UniProt Q16620); assay: as above; type: biochemical; conditions: 1 µmol/L of BTK inhibitor
T15 construct: purchased Carna Biosciences

CDK3/CycE1 = target: T16, CDK3/CycE1 (Homo sapiens, UniProt Q00526); assay: as above; type: biochemical; conditions: 1 µmol/L of BTK inhibitor
T16 construct: purchased Carna Biosciences

EPHA6 = target: T17, EPHA6 (Homo sapiens, UniProt Q9UF33); assay: as above; type: biochemical; conditions: 1 µmol/L of BTK inhibitor
T17 construct: purchased Carna Biosciences
T17 sequence (Q9UF33 23-1036): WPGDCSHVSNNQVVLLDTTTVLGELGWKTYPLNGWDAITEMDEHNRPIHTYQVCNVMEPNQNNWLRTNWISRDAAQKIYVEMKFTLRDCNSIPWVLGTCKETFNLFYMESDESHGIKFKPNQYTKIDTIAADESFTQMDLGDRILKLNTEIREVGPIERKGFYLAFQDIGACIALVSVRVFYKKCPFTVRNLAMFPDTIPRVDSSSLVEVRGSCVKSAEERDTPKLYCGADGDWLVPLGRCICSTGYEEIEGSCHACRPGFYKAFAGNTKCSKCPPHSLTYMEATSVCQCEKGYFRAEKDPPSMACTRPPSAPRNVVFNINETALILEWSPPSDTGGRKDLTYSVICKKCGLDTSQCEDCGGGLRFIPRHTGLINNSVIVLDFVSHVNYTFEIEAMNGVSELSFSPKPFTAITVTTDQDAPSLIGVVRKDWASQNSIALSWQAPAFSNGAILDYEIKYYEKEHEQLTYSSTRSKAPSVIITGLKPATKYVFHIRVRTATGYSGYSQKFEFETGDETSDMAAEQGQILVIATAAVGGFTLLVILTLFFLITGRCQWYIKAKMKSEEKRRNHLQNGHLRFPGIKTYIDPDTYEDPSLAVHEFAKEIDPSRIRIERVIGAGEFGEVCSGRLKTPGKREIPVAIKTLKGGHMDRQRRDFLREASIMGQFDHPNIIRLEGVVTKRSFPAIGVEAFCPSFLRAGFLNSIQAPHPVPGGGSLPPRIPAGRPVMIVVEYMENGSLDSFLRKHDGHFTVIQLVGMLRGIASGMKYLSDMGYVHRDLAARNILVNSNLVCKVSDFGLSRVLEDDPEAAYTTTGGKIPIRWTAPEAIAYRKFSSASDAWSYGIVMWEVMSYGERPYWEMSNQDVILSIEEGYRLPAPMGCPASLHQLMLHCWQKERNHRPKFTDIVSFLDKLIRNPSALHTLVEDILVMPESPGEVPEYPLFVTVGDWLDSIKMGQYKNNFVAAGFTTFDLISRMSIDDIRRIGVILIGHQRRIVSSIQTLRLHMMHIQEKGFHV

CK1γ3 = target: T18, CK1γ3 (Homo sapiens, UniProt Q9Y6M4); assay: as above; type: biochemical; conditions: 1 µmol/L of BTK inhibitor
T18 construct: purchased Carna Biosciences

CLK2 = target: T19, CLK2 (Homo sapiens, UniProt P49760); assay: as above; type: biochemical; conditions: 1 µmol/L of BTK inhibitor
T19 construct: purchased Carna Biosciences

ZAP70 = target: T20, ZAP70 (Homo sapiens, UniProt P43403); assay: as above; type: biochemical; conditions: 1 µmol/L of BTK inhibitor
T20 construct: purchased Carna Biosciences
T20 sequence (P43403 1-619): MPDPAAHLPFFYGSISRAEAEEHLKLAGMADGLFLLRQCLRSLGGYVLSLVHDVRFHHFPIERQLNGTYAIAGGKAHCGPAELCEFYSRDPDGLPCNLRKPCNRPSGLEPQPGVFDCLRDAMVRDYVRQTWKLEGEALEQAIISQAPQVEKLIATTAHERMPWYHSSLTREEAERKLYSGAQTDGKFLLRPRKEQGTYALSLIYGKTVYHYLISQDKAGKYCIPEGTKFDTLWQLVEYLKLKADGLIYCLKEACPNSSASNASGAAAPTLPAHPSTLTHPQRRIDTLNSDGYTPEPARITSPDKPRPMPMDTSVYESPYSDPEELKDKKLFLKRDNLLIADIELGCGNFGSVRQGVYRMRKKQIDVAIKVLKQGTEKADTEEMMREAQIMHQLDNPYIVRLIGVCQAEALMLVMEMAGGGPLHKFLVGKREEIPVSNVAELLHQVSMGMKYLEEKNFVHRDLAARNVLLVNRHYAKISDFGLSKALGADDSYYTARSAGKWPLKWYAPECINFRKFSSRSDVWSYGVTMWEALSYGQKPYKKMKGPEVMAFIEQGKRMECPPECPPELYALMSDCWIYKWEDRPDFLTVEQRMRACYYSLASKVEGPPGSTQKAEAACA

T11 sequence (Q9Y463 whole entry): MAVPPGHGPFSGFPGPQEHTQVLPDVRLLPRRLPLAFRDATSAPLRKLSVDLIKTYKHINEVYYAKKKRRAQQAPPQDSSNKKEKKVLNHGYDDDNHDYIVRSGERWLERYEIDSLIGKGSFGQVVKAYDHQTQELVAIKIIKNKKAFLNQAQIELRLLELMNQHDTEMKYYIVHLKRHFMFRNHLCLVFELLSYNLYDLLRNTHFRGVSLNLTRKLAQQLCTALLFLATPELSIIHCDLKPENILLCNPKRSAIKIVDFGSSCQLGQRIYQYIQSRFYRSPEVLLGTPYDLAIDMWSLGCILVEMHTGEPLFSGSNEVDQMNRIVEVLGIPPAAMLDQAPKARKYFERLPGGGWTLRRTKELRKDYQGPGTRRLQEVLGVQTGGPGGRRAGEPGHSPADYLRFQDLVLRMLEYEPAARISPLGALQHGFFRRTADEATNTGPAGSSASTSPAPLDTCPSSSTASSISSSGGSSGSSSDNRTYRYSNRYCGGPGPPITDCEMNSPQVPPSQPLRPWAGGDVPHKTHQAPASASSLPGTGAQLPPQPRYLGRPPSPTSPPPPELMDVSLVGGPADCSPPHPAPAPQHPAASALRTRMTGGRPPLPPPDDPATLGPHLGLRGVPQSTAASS
T12 sequence (Q16816 whole entry): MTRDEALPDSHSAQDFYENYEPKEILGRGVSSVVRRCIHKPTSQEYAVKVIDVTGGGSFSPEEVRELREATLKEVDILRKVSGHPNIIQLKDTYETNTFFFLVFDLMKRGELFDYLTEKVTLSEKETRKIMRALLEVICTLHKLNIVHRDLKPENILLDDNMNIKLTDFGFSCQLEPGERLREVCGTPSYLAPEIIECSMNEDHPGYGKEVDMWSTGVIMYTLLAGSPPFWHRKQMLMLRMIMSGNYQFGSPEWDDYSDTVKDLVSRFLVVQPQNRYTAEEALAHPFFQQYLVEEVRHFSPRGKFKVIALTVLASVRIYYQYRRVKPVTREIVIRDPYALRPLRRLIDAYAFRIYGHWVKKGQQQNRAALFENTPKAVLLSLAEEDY
T8 sequence (O00311 whole entry): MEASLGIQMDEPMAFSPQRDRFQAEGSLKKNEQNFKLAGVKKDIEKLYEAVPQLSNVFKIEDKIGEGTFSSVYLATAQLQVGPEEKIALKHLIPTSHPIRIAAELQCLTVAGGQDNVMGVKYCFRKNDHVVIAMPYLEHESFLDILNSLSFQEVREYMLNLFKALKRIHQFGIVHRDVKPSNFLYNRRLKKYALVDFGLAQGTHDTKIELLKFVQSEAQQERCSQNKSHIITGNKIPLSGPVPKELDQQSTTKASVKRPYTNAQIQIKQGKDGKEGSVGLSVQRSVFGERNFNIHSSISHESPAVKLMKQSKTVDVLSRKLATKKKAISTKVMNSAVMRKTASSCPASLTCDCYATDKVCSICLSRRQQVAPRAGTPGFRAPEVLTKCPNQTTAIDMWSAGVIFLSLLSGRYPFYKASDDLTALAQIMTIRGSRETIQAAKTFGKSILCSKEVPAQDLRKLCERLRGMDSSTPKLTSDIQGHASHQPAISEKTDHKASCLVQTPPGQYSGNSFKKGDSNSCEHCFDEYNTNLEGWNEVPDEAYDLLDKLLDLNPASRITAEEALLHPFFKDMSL
T8 sequence (Q9UBU7 whole entry partner): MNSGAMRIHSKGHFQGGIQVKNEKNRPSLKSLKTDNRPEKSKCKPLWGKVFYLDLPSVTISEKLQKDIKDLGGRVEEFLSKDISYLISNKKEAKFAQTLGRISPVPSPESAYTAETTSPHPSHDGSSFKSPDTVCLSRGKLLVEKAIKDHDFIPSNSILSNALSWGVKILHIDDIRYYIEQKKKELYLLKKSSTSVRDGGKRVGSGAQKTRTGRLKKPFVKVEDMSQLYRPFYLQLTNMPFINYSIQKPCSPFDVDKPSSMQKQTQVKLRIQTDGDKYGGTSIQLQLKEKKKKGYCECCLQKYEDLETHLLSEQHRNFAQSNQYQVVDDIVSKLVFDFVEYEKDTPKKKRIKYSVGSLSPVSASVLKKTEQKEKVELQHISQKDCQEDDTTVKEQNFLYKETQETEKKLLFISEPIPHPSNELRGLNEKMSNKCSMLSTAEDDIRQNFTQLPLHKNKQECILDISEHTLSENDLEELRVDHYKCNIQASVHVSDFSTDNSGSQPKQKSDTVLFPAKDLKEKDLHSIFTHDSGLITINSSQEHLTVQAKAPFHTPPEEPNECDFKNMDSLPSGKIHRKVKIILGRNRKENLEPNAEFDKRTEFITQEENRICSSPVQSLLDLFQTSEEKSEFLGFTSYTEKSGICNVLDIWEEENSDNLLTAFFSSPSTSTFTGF
T19 sequence (P49760 whole entry): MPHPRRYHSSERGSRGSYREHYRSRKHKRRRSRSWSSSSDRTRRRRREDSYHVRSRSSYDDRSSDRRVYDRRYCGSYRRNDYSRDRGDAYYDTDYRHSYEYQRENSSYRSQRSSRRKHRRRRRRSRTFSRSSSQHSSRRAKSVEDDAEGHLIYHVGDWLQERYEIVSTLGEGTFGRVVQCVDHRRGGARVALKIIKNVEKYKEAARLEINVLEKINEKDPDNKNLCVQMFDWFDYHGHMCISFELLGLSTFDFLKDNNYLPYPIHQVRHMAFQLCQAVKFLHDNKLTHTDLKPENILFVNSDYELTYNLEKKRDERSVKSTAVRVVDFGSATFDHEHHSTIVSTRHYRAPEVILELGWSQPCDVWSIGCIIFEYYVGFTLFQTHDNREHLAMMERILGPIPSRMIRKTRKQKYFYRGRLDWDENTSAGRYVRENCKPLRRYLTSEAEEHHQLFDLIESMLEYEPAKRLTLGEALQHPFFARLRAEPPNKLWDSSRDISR
T16 sequence (Q00526 whole entry): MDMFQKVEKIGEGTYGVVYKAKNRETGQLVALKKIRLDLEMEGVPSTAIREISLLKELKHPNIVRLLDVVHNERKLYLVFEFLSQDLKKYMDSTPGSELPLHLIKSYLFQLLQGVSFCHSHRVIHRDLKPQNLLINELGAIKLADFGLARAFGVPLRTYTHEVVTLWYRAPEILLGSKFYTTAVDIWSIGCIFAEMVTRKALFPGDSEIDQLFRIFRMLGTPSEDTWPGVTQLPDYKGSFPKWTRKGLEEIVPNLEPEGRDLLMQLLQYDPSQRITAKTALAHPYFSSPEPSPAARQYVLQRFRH
T16 sequence (P24864 whole entry partner): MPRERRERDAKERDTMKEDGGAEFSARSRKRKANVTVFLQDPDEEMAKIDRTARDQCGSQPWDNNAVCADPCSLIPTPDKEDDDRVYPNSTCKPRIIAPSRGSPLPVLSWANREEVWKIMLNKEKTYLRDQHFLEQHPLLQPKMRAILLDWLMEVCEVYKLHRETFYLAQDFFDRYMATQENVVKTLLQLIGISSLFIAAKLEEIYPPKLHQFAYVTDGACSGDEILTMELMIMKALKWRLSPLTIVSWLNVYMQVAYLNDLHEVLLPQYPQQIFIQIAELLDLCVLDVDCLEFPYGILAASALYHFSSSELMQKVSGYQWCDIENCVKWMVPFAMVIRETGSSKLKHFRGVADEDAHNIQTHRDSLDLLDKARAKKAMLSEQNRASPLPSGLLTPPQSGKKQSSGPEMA
T14 sequence (O43683 whole entry): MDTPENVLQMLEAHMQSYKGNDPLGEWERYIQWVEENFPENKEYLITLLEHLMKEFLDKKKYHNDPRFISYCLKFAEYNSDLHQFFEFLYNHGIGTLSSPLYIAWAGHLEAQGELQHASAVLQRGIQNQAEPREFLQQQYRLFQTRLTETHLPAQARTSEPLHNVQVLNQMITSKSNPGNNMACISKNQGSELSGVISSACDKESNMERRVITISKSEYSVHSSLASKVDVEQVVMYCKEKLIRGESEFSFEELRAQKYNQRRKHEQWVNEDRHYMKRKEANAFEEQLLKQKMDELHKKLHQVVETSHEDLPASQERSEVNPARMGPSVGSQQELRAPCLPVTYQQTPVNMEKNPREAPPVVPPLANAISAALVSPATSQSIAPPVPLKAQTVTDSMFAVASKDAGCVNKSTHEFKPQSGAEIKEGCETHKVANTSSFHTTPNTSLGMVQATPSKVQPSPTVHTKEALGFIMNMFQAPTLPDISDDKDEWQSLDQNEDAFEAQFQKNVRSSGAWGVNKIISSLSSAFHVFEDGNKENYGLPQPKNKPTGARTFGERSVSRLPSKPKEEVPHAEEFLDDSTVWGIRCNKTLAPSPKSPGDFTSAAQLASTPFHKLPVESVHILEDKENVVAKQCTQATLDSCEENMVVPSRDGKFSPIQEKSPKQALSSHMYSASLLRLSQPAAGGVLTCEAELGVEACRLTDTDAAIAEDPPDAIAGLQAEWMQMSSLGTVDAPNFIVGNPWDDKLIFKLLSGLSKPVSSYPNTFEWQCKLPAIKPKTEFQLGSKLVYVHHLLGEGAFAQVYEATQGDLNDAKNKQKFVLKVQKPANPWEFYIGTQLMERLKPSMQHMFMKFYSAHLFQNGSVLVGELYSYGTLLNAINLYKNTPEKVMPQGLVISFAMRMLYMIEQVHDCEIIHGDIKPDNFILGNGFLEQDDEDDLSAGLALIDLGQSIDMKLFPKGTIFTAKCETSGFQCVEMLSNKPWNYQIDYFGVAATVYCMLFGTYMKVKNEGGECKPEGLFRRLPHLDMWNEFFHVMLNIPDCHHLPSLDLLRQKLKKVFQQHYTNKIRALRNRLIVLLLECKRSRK
T14 sequence (O43684 whole entry partner): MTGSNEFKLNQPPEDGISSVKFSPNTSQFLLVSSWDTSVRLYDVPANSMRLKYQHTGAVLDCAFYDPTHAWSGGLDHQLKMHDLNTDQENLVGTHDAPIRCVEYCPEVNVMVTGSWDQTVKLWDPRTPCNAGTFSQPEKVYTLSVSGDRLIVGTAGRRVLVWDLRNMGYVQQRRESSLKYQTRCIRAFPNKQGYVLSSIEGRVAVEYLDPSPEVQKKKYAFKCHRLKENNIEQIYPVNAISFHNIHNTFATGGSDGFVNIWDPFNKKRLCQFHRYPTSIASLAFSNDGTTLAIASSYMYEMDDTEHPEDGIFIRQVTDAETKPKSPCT

| Structure (SMILES) | Percentage inhibition of kinase enzyme activity (skMLCK) [%] | Percentage inhibition of kinase enzyme activity (MSSK1) [%] | Percentage inhibition of kinase enzyme activity (CDK7/CycH/MAT1) [%] | Percentage inhibition of kinase enzyme activity (RSK2) [%] | Percentage inhibition of kinase enzyme activity (ACK) [%] | Percentage inhibition of kinase enzyme activity (PKACβ) [%] | Percentage inhibition of kinase enzyme activity (Erk5) [%] | Percentage inhibition of kinase enzyme activity (CDC7/ASK) [%] | Percentage inhibition of kinase enzyme activity (JNK2) [%] | Percentage inhibition of kinase enzyme activity (JNK1) [%] | Percentage inhibition of kinase enzyme activity (DYRK1B) [%] | Percentage inhibition of kinase enzyme activity (FGFR1) [%] | Percentage inhibition of kinase enzyme activity (PHKG1) [%] | Percentage inhibition of kinase enzyme activity (LCK) [%] | Percentage inhibition of kinase enzyme activity (BUB1/BUB3) [%] | Percentage inhibition of kinase enzyme activity (TRKB) [%] | Percentage inhibition of kinase enzyme activity (CDK3/CycE1) [%] | Percentage inhibition of kinase enzyme activity (EPHA6) [%] | Percentage inhibition of kinase enzyme activity (CK1γ3) [%] | Percentage inhibition of kinase enzyme activity (ZAP70) [%] | further results |
| --- | --- | --- | --- | --- | --- | --- | --- | --- | --- | --- | --- | --- | --- | --- | --- | --- | --- | --- | --- | --- | --- |
| O=C(c1ccc(Oc2ccccc2)cc1Cl)c1c[nH]c2ncnc(N[C@@H]3CC[C@@H](CO)OC3)c12 [nemtabrutinib] | 2.60 | -0.95 | -12.60 | 7.48 | 98.62 | 12.59 | 15.76 | -1.26 | 4.23 | -3.89 | -3.59 | 46.81 | 7.46 | 70.86 | -0.62 | 101.64 | 7.04 | 49.03 | 3.75 | 8.61 | IC50 (FGFR1): 134 nM; Percentage inhibition of kinase enzyme activity (CLK2): 56.28% |
| CC#CC(=O)N1CCC[C@H]1c1nc(-c2ccc(C(=O)Nc3ccccn3)cc2)c2c(N)nccn12 [acalabrutinib] | -17.48 | -4.86 | 5.25 | 0.054 | 14.06 | -13.09 | -2.12 | -1.64 | -1.85 | -0.88 | -19.49 | -2.28 | -4.16 | 6.84 | 5.51 | 13.81 | -6.14 | -2.37 | -14.72 | -1.53 | Percentage inhibition of kinase enzyme activity (CLK2): -6.97% |
| COc1ccc(F)cc1C(=O)NCc1ccc(-c2nn([C@@H](C)C(F)(F)F)c(N)c2C(N)=O)cc1 [pirtobrutinib] | -3.69 | -8.63 | -4.77 | 2.95 | 13.05 | -8.02 | 0.51 | -5.67 | 7.41 | -0.29 | 12.04 | 3.30 | 4.81 | 30.64 | 3.40 | 4.46 | -4.77 | 6.36 | -0.93 | -3.75 | Percentage inhibition of kinase enzyme activity (CLK2): 10.54% |
| C=CC(=O)N1CCC([C@@H]2CCNc3c(C(N)=O)c(-c4ccc(Oc5ccccc5)cc4)nn32)CC1 [zanubrutinib] | – | – | – | – | – | – | – | – | – | – | – | -5.28 | – | 0.21 | – | – | – | 0.76 | – | – | – |
| C=CC(=O)N1CCC[C@@H](n2nc(-c3ccc(Oc4ccccc4)cc3)c3c(N)ncnc32)C1 [ibrutinib] | -16.74 | 1.54 | 4.94 | 7.41 | 72.74 | -9.04 | 3.89 | -0.99 | -2.83 | -2.33 | 1.91 | 70.87 | 1.53 | 100.25 | 5.19 | 25.78 | 0.49 | 92.64 | 3.83 | -4.51 | – |
